We go through 6 compounds from publication PMC7272617 (Scientific Reports, 2020).

Assay [1] concerns Escherichia coli O157:H7 MT strain. Particulars: E. coli O157:H7 MT strain; MHB, 37 °C, 24 h.
In assay [2] the test system is Escherichia coli ATCC 25922. Particulars: ATCC 25922, 24 h.
The test system of assay [3] is Vibrio cholera O1 Inaba DMST 16261. Particulars: MHB, 37 °C, 24 h.
Assay [4] relates to Enterococcus faecalis ATCC 29212. As to conditions: ATCC 29212, 24 h.
The test system of assay [5] is Listeria monocytogenes 10403 s. As to conditions: 10403 s, 24 h.
Assay [6] deals with Salmonella Typhimurium ATCC 13311. As to conditions: ATCC 13311, 24 h.
The subject of assay [7] is all Gram-negative strains. The assay is described as follows: Mean MIC and therapeutic index, Gram-negative strains. The format is cell-based. Particulars: 7 Gram-negative strains of Table 3. As for the experimental part:
(§1) The antimicrobial activity of the peptides was determined against both Gram-positive and -negative bacteria including 14 MDR P. aeruginosa clinical isolates from Bhumibol Adulyadej Hospital (Tables 1 and 3). The minimal inhibitory concentration (MIC) of each peptide was measured according to a modification of the National Committee for Clinical Laboratory Standards (NCCLS) broth microdilution method as previously described. Briefly, bacterial cells in mid-log phase were cultured in Müeller-Hinton broth (MHB) and then diluted to 10^7 CFU/ml. […] Plates were incubated at 37 °C for 24 h, and MICs were defined as the lowest concentration of peptide that prevented visible turbidity. Cultures without peptides and uninoculated MHB were employed as positive and negative controls, respectively. Colony count assays were performed to determine the minimal bactericidal concentrations (MBCs) for determination of time-killing activity. As previously described, a 50 μl aliquot from each non-turbid well identified in the MIC determination experiment was spread on agar plates.
(§2) To further evaluate the global activity of these peptides, the geometric mean (GM) MIC and the therapeutic index (TI) of each were calculated (Table 3). The TI, a widely used parameter to evaluate cell selectivity and specificity of antimicrobial agents, was calculated as the ratio of MHC (the concentration that causes 10% hemolysis) to the geometric mean of MICs[22]. Higher TIs indicated greater cell selectivity and specificity.

Assay [8] concerns all Gram-positive strains. Nature of the assay: Mean MIC and therapeutic index, Gram-positive strains. It is filed as cell-based. As to conditions: 5 Gram-positive strains of Table 3. On the procedure: as §1, §2
Assay [9] has as its system Staphylococcus aureus ATCC 25923. Particulars: ATCC 25923, 24 h.
Assay [10] concerns Staphylococcus epidermidis ATCC 12228. As to conditions: ATCC 12228, 24 h.
Assay [11] deals with Acinetobacter baumannii MT strain. Particulars: MT strain, 24 h.
Assay [12] deals with Pseudomonas aeruginosa ATCC 27853. Particulars: ATCC 27853, 24 h.

SMILES strings stand for the structures. Converted amounts (≈) assume the structure as drawn. Where a SMILES comes first, the peptide text is derived from it.

The MIC is the lowest concentration that inhibits growth of the organism. Higher therefore signals a less susceptible organism. In the case of `CC[C@H](C)[C@H](NC(=O)[C@H](CCCNC(=N)N)NC(=O)[C@H](CCCCN)NC(=O)[C@H](C)NC(=O)[C@@H](NC(=O)[C@@H](N)CCCCN)[C@@H](C)CC)C(=O)N[C@@H](Cc1c[nH]c2ccccc12)C(=O)N[C@@H](CCCCN)C(=O)N[C@H](C(=O)N[C@@H](CC(C)C)C(=O)N[C@@H](CCCNC(=N)N)C(=O)N[C@@H](CCCNC(=N)N)C(=O)N[C@@H](CCCNC(=N)N)C(=O)N[C@@H](CC(C)C)C(=O)N[C@@H](Cc1ccccc1)C(=O)N[C@@H](CCCNC(=N)N)C(=O)N[C@@H](CCCNC(=N)N)C(N)=O)[C@@H](C)CC` [PA-17] (H-KIAKRIWKILRRRLFRR-NH2; N-terminus assumed), the MIC in [1] was determined as 62.5 µg/mL (≈ 27.1 µM); in assay [2] it was 15.63 µg/mL (≈ 6.77 µM); in assay [3], 7.81 µg/mL (≈ 3.38 µM); in assay [4], 31.25 µg/mL (≈ 13.5 µM); in assay [5], 1.95 µg/mL (≈ 0.845 µM); in assay [6] it was 3.91 µg/mL (≈ 1.69 µM). The figures for the MIC in assay [9] and in assay [10] were 15.63 µg/mL (≈ 6.77 µM) and 3.91 µg/mL (≈ 1.69 µM), respectively. The “GM (Gr.− strains): geometric mean of MIC values from all Gram-negative strains” value (shortened to “GM (Gr.− strains): geometric mean”) in [7] was 15.63 µg/mL. Moreover, in assay [8], the “GM (Gr.+ strains): geometric mean of MIC values from all Gram-positive strains” value (shortened to “GM (Gr.+ strains): geometric mean”) came to 12.11 µg/mL.
Consider `CC[C@H](C)[C@H](NC(=O)[C@H](CCCNC(=N)N)NC(=O)[C@H](CCCCN)NC(=O)[C@H](C)NC(=O)[C@@H](NC(=O)[C@@H](N)CCCCN)[C@@H](C)CC)C(=O)N[C@@H](Cc1c[nH]c2ccccc12)C(=O)N[C@@H](CCCCN)C(=O)N[C@H](C(=O)N[C@@H](CC(C)C)C(=O)N[C@@H](CCCNC(=N)N)C(=O)N[C@@H](CCCNC(=N)N)C(=O)N[C@@H](CCCNC(=N)N)C(=O)N[C@@H](CC(C)C)C(=O)N[C@@H](Cc1ccccc1)C(=O)N[C@@H](CCCNC(=N)N)C(N)=O)[C@@H](C)CC` [PA-16] (H-KIAKRIWKILRRRLFR-NH2; N-terminus assumed), for which the MIC in [1] was 62.5 µg/mL (≈ 29 µM); in assay [2], 7.81 µg/mL (≈ 3.63 µM); in assay [3], 3.91 µg/mL (≈ 1.82 µM); in assay [4], 15.63 µg/mL (≈ 7.26 µM); in [6] it was 1.95 µg/mL (≈ 0.906 µM); in assay [11], 7.81 µg/mL (≈ 3.63 µM). Also, the MIC in [9] and in [12] was 7.81 µg/mL (≈ 3.63 µM) in each case. Moreover, the “GM (Gr.− strains): geometric mean” value in [7] was determined as 13.67 µg/mL. Besides, in assay [8], the “GM (Gr.+ strains): geometric mean” value is 7.03 µg/mL.
In the case of `CC[C@H](C)[C@H](NC(=O)[C@H](CCCNC(=N)N)NC(=O)[C@H](CCCCN)NC(=O)[C@H](C)NC(=O)[C@@H](NC(=O)[C@@H](N)CCCCN)[C@@H](C)CC)C(=O)N[C@@H](Cc1c[nH]c2ccccc12)C(=O)N[C@@H](CCCCN)C(=O)N[C@H](C(=O)N[C@@H](CC(C)C)C(=O)N[C@@H](CCCNC(=N)N)C(=O)N[C@@H](CCCNC(=N)N)C(=O)N[C@@H](CCCNC(=N)N)C(=O)N[C@@H](CC(C)C)C(=O)N[C@@H](Cc1ccccc1)C(=O)N[C@@H](CCCNC(=N)N)C(=O)N[C@@H](CCCNC(=N)N)C(=O)N[C@H](C(N)=O)C(C)C)[C@@H](C)CC` [PA-18] (H-KIAKRIWKILRRRLFRRV-NH2; N-terminus assumed), the MIC in [1] turned out to be 250 µg/mL (≈ 104 µM); in [2] it was 31.25 µg/mL (≈ 13 µM); in [3], 7.81 µg/mL (≈ 3.24 µM); in assay [4], 31.25 µg/mL (≈ 13 µM); in [5], 1.95 µg/mL (≈ 0.81 µM); in assay [6], 3.91 µg/mL (≈ 1.62 µM). Also, the results for the MIC in assay [11], in assay [9] and in assay [10] were 15.63 µg/mL (≈ 6.49 µM), 15.63 µg/mL (≈ 6.49 µM) and 3.91 µg/mL (≈ 1.62 µM), respectively. Moreover, the “GM (Gr.− strains): geometric mean” value in [7] is 45.76 µg/mL. The “GM (Gr.+ strains): geometric mean” value in assay [8] was 12.11 µg/mL.
On to `CC[C@H](C)[C@H](NC(=O)[C@H](CCCNC(=N)N)NC(=O)[C@H](CCCCN)NC(=O)[C@H](C)NC(=O)[C@@H](NC(=O)[C@@H](N)CCCCN)[C@@H](C)CC)C(=O)N[C@@H](Cc1c[nH]c2ccccc12)C(=O)N[C@@H](CCCCN)C(=O)N[C@H](C(=O)N[C@@H](CC(C)C)C(=O)N[C@@H](CCCNC(=N)N)C(=O)N[C@@H](CCCNC(=N)N)C(=O)N[C@@H](CCCNC(=N)N)C(=O)N[C@@H](CC(C)C)C(=O)N[C@@H](Cc1ccccc1)C(=O)N[C@@H](CCCNC(=N)N)C(=O)N[C@@H](CCCNC(=N)N)C(=O)N[C@H](C(=O)N[C@@H](CCCCN)C(=O)N[C@@H](CCCCN)C(=O)N[C@H](C(=O)N[C@@H](C)C(=O)NCC(N)=O)C(C)C)C(C)C)[C@@H](C)CC` [P7A3] (H-KIAKRIWKILRRRLFRRVKKVAG-NH2; N-terminus assumed), for which the MIC in assay [1] is 250 µg/mL (≈ 86.5 µM); in assay [2] it was 15.63 µg/mL (≈ 5.41 µM); in [3] it was 7.81 µg/mL (≈ 2.7 µM); in assay [4] it was 31.25 µg/mL (≈ 10.8 µM); in assay [5], 3.91 µg/mL (≈ 1.35 µM); in [9], 15.63 µg/mL (≈ 5.41 µM). Moreover, in [10], the MIC was determined as 3.91 µg/mL (≈ 1.35 µM). Besides, the “GM (Gr.− strains): geometric mean” value in assay [7] stood at 42.97 µg/mL. In assay [8], the “GM (Gr.+ strains): geometric mean” value came to 12.50 µg/mL.
Turning to `CC[C@H](C)[C@H](NC(=O)[C@H](CCCNC(=N)N)NC(=O)[C@H](CCCCN)NC(=O)[C@H](C)NC(=O)[C@@H](NC(=O)[C@@H](N)CCCCN)[C@@H](C)CC)C(=O)N[C@@H](Cc1c[nH]c2ccccc12)C(=O)N[C@@H](CCCCN)C(=O)N[C@H](C(=O)N[C@@H](CC(C)C)C(=O)N[C@@H](CCCNC(=N)N)C(=O)N[C@@H](CCCNC(=N)N)C(=O)N[C@@H](CCCNC(=N)N)C(=O)N[C@@H](CC(C)C)C(=O)N[C@@H](Cc1ccccc1)C(N)=O)[C@@H](C)CC` [PA-15] (H-KIAKRIWKILRRRLF-NH2; N-terminus assumed), the MIC in assay [1] was 15.63 µg/mL (≈ 7.83 µM); in assay [3] it was 3.91 µg/mL (≈ 1.96 µM); in [4], 31.25 µg/mL (≈ 15.7 µM); in assay [5], 1.95 µg/mL (≈ 0.977 µM); in assay [6] it was 1.95 µg/mL (≈ 0.977 µM); in assay [9], 7.81 µg/mL (≈ 3.91 µM). This compound registered an MIC in [12] of 7.81 µg/mL (≈ 3.91 µM). The “GM (Gr.− strains): geometric mean” value in [7] was found to be 7.54 µg/mL. Moreover, the “GM (Gr.+ strains): geometric mean” value in assay [8] worked out at 9.77 µg/mL.
For `CC[C@H](C)[C@H](NC(=O)[C@H](CCCNC(=N)N)NC(=O)[C@H](CCCCN)NC(=O)[C@H](C)NC(=O)[C@@H](NC(=O)[C@@H](N)CCCCN)[C@@H](C)CC)C(=O)N[C@@H](Cc1c[nH]c2ccccc12)C(=O)N[C@@H](CCCCN)C(=O)N[C@H](C(=O)N[C@@H](CC(C)C)C(=O)N[C@@H](CCCNC(=N)N)C(=O)N[C@@H](CCCNC(=N)N)C(=O)N[C@@H](CCCNC(=N)N)C(=O)N[C@@H](CC(C)C)C(N)=O)[C@@H](C)CC` [PA-14] (H-KIAKRIWKILRRRL-NH2; N-terminus assumed), the minimal inhibitory concentration (MIC) in assay [1] worked out at 62.5 µg/mL (≈ 33.8 µM); in assay [2], 15.63 µg/mL (≈ 8.45 µM); in assay [3], 7.81 µg/mL (≈ 4.22 µM); in assay [4], 125 µg/mL (≈ 67.6 µM); in assay [5], 1.95 µg/mL (≈ 1.05 µM); in assay [6] it was 1.95 µg/mL (≈ 1.05 µM). The MIC was found to be 3.91 µg/mL (≈ 2.11 µM) in assay [11], 15.63 µg/mL (≈ 8.45 µM) in assay [9], 3.91 µg/mL (≈ 2.11 µM) in assay [12] and 3.91 µg/mL (≈ 2.11 µM) in assay [10]. In addition, the “GM (Gr.− strains): geometric mean” value in assay [7] came out at 14.23 µg/mL. Moreover, in assay [8], the “GM (Gr.+ strains): geometric mean” value came out at 30.86 µg/mL.
